The source of these data is patent US20170121683A1, “ARYL HYDROCARBON RECEPTOR DISRUPTION AND ENHANCEMENT” (priority 2015, published 2017).

The test system of one assay is H9 hESCs. Description: Hemato-endothelial differentiation of H9 hESCs as spin-EBs, flow cytometry (Example 1). In kind it is cell-based, human. The method, then: H9 human embryonic stem cells (H9 hESCs; University of Wisconsin, Madison, Wis.) were adapted to passage as single cells using TrypLE (Invitrogen, Carlsbad, Calif.) as previously described (Ng et al. Nat. Protoc. 3, 768-76 (2008)). H9 hESCs were maintained on irradiated mouse embryonic fibroblasts in ES cell growth medium including Dulbecco's modified Eagle's medium (DMEM)/Ham's F-12 medium (F12) (Invitrogen) supplemented with 15% Knockout Serum Replacer (Invitrogen), 1 mM L-glutamine (Invitrogen), 0.1 mM β-mercaptoethanol (Sigma Aldrich, St. Louis, Mo.), 1% minimum essential medium nonessential amino acids (Invitrogen), 4 ng/mL basic fibroblast growth factor (R&D Systems Inc., Minneapolis, Minn.), and 1% penicillin-streptomycin (Invitrogen) incubated at 37° C. in a humidified atmosphere containing 5% CO2. Single-cell adapted hESCs were subjected to hemato-endothelial differentiation as spin embryoid bodies (“spin-EBs”), also previously described (Ng et al. Nat. Protoc. 3, 768-76 (2008); Knorr et al. Stem Cells Dev. 22, 1861-9 (2013); Ferrell et al., Stem Cells 33(4), 1130-41 (2015)). In brief, TrypLE-adapted hESCs were harvested are resuspended in bovine serum albumin polyvinyl alcohol essential lipids (BPEL) media (Ferrell et al. Stem Cells 33(4):1130-41 (2015)) supplemented with 20 ng/mL bone morphogenic protein-4 (R&D Systems), 20 ng/mL vascular endothelial growth factor (R&D Systems), and 40 ng/mL stem cell factor (R&D Systems) (hemato-endothelial induction media or Stage I mesodermal induction media). Cells were plated in a low-attachment 96-well plate (Thermo Scientific, Waltham, Mass.) at 3,000 cells per well and centrifuged at 1500 rpm for 5 minutes to create three-dimensionalized embryoid body aggregates. Following 6 days of incubation, EBs were transferred with a multichannel micropipette to 0.1% gelatinized 24-well plates (8 EBs/well) with BEL media (BPEL media minus polyvinyl alcohol) supplemented with 40 ng/mL vascular endothelial growth factor, 40 ng/mL stem cell factor, 30 ng/mL Interleukin-3 (Peprotech, Rocky Hill, N.J.), 30 ng/mL Interleukin-6 (Peprotech), and 30 ng/mL thrombopoietin (Peprotech) ([…] or Stage II media) to induce hemato-endothelial-specific differentiation. Depending on the treatment group, Stage II media was also supplemented with DMSO, 1 μM StemReginin-1 (SR-1) (Cellagen Technology, San Diego, Calif.) in DMSO or 10 nM 2,3,7,8-tetrachlorodibenzo-p-dioxin (TCDD) (Sigma Aldrich) in DMSO. EBs were cultured until the indicated time points and one-half media changes with fresh Stage II media and drugs were performed every three days. For EB harvesting, the media containing the non-adherent differentiated hematopoietic cells was set aside while the adherent cells were treated with 0.05% trypsin (Invitrogen) containing 2% chicken serum (Sigma Aldrich) for 8-10 minutes in a 37° C. water bath. Both non-adherent and adherent fractions were combined for subsequent analyses.
Harvested cells were incubated with PE-Cy7 CD34 (BD Biosciences, San Jose, Calif.) in conjunction with APC CD31, APC CD41a, APC CD43, or APC CD45 for 30 minutes at 4° C. in FACS buffer (DPBS containing 2% fetal bovine serum and 0.1% sodium azide). Dead cells were excluded using Sytox Blue dye (Invitrogen) prior to analysis. Cells were analyzed using an LSRII flow cytometer (BD Biosciences) and data were analyzed using FlowJo software (TreeStart, Ashland, Oreg.).
(In general: In flow cytometry, cells or beads pass a laser one at a time.)

Assay [1] concerns hESC-derived non-adherent hematopoietic progenitor cells. Description: Hematopoietic colony-forming unit (CFU) assay (Example 2). As to conditions: cells harvested at Day 6+5, 14 days in Methocult, n=3. The assay is classed as cell-based, human. The source says:
FIG. 9A. Non-adherent hematopoietic progenitor cells derived from hESCs differentiated in the presence of SR-1, TCDD, or DMSO controls were harvested at Day 6+5 and seeded at 50,000 cells/dish in a standard methylcellulose colony-forming unit assay (CFU). Colonies were counted for each treatment group following 2 weeks of culture and scored for the following morphological subsets: BFU-E: burst-forming unit-erythroid; CFU-E: colony-forming unit-erythroid; CFU-GM: colony-forming unit-granulocyte, macrophage, CFU-M: colony-forming unit-macrophage; CFU-GEMM: colony-forming unit-granulocyte, erythroid, macrophage, megakaryocyte. n=3, error bars represent SEM of the total number of colonies/50,000 cells seeded, *p<0.05 as assessed with one-way ANOVA+Tukey-Kramer multiple comparisons post-hoc test. FIG. 9B. Non-adherent hematopoietic progenitor cells derived from hESCs differentiated in the presence of SR-1, TCDD, or DMSO controls were harvested at Day 6+3, Day 6+6, and Day 6+9 time points and probed for gene expression by quantitative real-time PCR (qRT-PCR). […]
Day 6+5 spin-EB non-adherent fractions were resuspended in IMDM. […] Plates were incubated for 14 days and subsequently counted and phenotypically scored using standard criteria (Kaufman et al. Proc. Natl. Acad. Sci. U.S.A. 2001; 98(19):10716-21).

As for `CC(C)n1cnc2c(NCCc3ccc(O)cc3)nc(-c3csc4ccccc34)nc21` [SR-1, StemReginin-1], the “CD34+CD31+ hemato-endothelial cells” value in the assay with H9 hESCs (Day 9, 1 μM SR-1, n=3) was 17.63%±1.25. Further, the “expansion of CD34+CD45+ hematopoietic progenitor cells relative to DMSO-treated controls” value with H9 hESCs (Day 12, 1 μM SR-1) was “approximately two-fold expansion”. For the same molecule, the “CD34+CD45+ hematopoietic progenitor cells” value in the assay on H9 hESCs (Day 12, 1 μM SR-1, n=3) was 16.35%±4.05. Also, in assay [1], the “total number of colonies / 50,000 cells seeded” value came to 245.67±64.4 colonies.

With `Clc1cc2c(cc1Cl)Oc1cc(Cl)c(Cl)cc1O2` [TCDD, 2,3,7,8-tetrachlorodibenzo-p-dioxin], in the assay on H9 hESCs (Day 15, 10 nM TCDD, n=3), the “CD34+CD45+ progenitor cells” value is reported as 3.99%±0.80, the “CD34−CD43+ differentiated hematopoietic cells” value is recorded as 84.5%±2.78 and the “CD34−CD45+ differentiated hematopoietic cells” value is 81.75%±1.75. The “total number of colonies / 50,000 cells seeded” value in assay [1] is 28.3±2.67 colonies.
